The source of these data is US20250353891A1 (MEDIMMUNE LIMITED, priority 2022, published 2025).

The target in experiment [1] is human glucagon receptor (hGCGR) (Homo sapiens, UniProt P47871). The experiment in a line: cAMP production (HTRF) in CHO cells expressing hGCGR. It is filed as cell-based. Further details: expressed in transfected cells. To be noted: Table 6, peptides modified at position 17; cAMP in CHO hGCGR cells; geometric mean; read-out: hGluc-R EC50. The method, boiled down: (§1)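 Potency values represent EC50 from 4-parameter logistic curves of HTRF % Delta F signal. Receptor-expressing CHO cells (hGCGR 2×10^5 cells/mL, hGLP-1R 1×10^5 cells/mL) were exposed for 30 min at room temperature before two-step cAMP detection.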
(Changes in cAMP serve as a functional read-out for many G protein-coupled receptors.)

Experiment [2] concerns the target human GLP-1 receptor (hGLP-1R) (Homo sapiens, UniProt P43220). The experiment in a line: cAMP production (HTRF) in CHO cells expressing hGLP-1R. The class given is cell-based. Further details: expressed in transfected cells. To be noted: for pEC50: Table 6, peptides modified at position 17, cAMP in CHO hGLP-1R cells, geometric mean, read-out: hGLP-1R EC50; for % Relative Potency Ratio: Table 6, % GLP-1R activity relative to GLP-1 / % GlucR activity relative to glucagon. Summed up:
as §1

Each structure is given as a SMILES string. pEC50: −log10 of the molar value. Starred links: 1 amine or outer side, 2 acyl side, 3 side chain; linkers in the order of their positions; H or OH if unused. Non-standard residues stand in square brackets, D forms with d. Residues, ends and D or L forms follow the SMILES beside them. Groups on a side chain read outwards from the residue. *: point of attachment. C18 diacid = O=C(O)CCCCCCCCCCCCCCCCC(=O)*; γGlu = O=C(O)[C@H](CCC(=O)[*:2])N[*:1]; αMeF = C[C@](N)(Cc1ccccc1)C(=O)O; AEEA = NCCOCCOCC(=O)O; Aib = CC(C)(N)C(=O)O

human GLP-1 receptor (hGLP-1R), sequence (P43220 24-463): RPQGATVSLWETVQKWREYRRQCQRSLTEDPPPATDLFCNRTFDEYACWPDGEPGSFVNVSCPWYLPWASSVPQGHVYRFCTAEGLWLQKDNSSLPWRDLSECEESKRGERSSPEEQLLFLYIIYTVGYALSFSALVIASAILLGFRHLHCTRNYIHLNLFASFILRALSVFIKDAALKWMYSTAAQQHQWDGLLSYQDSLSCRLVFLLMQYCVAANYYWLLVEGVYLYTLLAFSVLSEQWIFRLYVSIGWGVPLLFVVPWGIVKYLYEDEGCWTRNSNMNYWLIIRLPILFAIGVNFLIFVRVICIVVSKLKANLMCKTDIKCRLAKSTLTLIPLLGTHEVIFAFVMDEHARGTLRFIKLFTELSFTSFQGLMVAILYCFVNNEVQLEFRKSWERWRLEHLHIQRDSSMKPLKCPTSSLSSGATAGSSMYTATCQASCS
human glucagon receptor (hGCGR), sequence (P47871 26-477): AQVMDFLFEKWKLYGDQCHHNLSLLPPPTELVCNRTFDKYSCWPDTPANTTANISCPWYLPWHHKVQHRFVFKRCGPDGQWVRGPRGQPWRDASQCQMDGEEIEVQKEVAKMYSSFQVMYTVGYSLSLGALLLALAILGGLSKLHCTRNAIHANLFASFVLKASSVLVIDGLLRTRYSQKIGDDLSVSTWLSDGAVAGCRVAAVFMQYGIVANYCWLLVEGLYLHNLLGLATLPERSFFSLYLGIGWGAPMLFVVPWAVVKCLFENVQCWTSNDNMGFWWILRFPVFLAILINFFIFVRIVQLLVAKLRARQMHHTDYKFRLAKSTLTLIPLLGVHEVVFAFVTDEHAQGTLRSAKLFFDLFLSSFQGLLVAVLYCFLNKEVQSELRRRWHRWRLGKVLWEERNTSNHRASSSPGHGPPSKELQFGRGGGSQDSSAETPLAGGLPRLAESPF

For the compound `CC(C)C[C@H](NC(=O)[C@H](Cc1c[nH]c2ccccc12)NC(=O)[C@H](C)NC(=O)[C@@H](NC(=O)[C@H](Cc1ccccc1)NC(=O)[C@H](CC(=O)O)NC(=O)[C@H](CCCNC(=N)N)NC(=O)[C@H](C)NC(=O)[C@H](CCCNC(=N)N)NC(=O)[C@H](CCCCNC(=O)COCCOCCNC(=O)COCCOCCNC(=O)CC[C@H](NC(=O)CCCCCCCCCCCCCCCCC(=O)O)C(=O)O)NC(=O)[C@H](CO)NC(=O)[C@H](CC(=O)O)NC(=O)[C@H](CC(C)C)NC(=O)[C@](C)(Cc1ccccc1)NC(=O)[C@H](CCCCN)NC(=O)[C@H](CO)NC(=O)[C@@H](NC(=O)[C@H](CC(=O)O)NC(=O)[C@H](CO)NC(=O)[C@@H](NC(=O)[C@H](Cc1ccccc1)NC(=O)[C@@H](NC(=O)CNC(=O)[C@H](CCC(N)=O)NC(=O)C(C)(C)NC(=O)[C@@H](N)Cc1c[nH]cn1)[C@@H](C)O)[C@@H](C)O)C(C)C)C(C)C)C(=O)N[C@@H](CC(C)C)C(=O)N[C@@H](CCC(=O)O)C(=O)NC(C)(C)C(=O)NCC(=O)O` [Peptide 142] (H-H[Aib]QGTFTSDVSK[αMeF]LDSK([AEEA-AEEA-γGlu-C18 diacid])RARDFVAWLLE[Aib]G-OH; N-terminus assumed), the pEC50 (commonly the EC50 on a negative log10 scale, so that one unit is a factor of ten) in experiment [1] was 9.97. Moreover, in experiment [2], the pEC50 was 10.23 and the “% Relative Potency Ratio” value is on record as 3.6.
`CC(C)C[C@H](NC(=O)[C@H](Cc1c[nH]c2ccccc12)NC(=O)[C@H](CCC(N)=O)NC(=O)[C@@H](NC(=O)[C@H](Cc1ccccc1)NC(=O)[C@H](CC(=O)O)NC(=O)[C@H](CCCNC(=N)N)NC(=O)[C@H](C)NC(=O)[C@H](CCCNC(=N)N)NC(=O)[C@H](CCCCNC(=O)COCCOCCNC(=O)COCCOCCNC(=O)CC[C@H](NC(=O)CCCCCCCCCCCCCCCCC(=O)O)C(=O)O)NC(=O)[C@H](CO)NC(=O)[C@H](CC(=O)O)NC(=O)[C@H](CC(C)C)NC(=O)[C@](C)(Cc1ccccc1)NC(=O)[C@H](CCCCN)NC(=O)[C@H](CO)NC(=O)[C@@H](NC(=O)[C@H](CC(=O)O)NC(=O)[C@H](CO)NC(=O)[C@@H](NC(=O)[C@H](Cc1ccccc1)NC(=O)[C@@H](NC(=O)CNC(=O)[C@H](CCC(N)=O)NC(=O)C(C)(C)NC(=O)[C@@H](N)Cc1c[nH]cn1)[C@@H](C)O)[C@@H](C)O)C(C)C)C(C)C)C(=O)N[C@@H](CC(C)C)C(=O)N[C@@H](CCC(=O)O)C(=O)NC(C)(C)C(=O)NCC(=O)O` [Peptide 143] (H-H[Aib]QGTFTSDVSK[αMeF]LDSK([AEEA-AEEA-γGlu-C18 diacid])RARDFVQWLLE[Aib]G-OH; N-terminus assumed): the pEC50 is 10.49 in experiment [1] and 10.72 in experiment [2]. Besides, the “% Relative Potency Ratio” value in experiment [2] is given as 3.4.
Taken in the same sequence, the figures for `CC[C@H](C)[C@H](NC(=O)CNC(=O)[C@H](CCCNC(=N)N)NC(=O)[C@H](CO)NC(=O)[C@H](C)NC(=O)[C@H](CC(C)C)NC(=O)[C@H](Cc1c[nH]c2ccccc12)NC(=O)[C@H](CCCNC(=N)N)NC(=O)[C@@H](NC(=O)[C@H](Cc1ccccc1)NC(=O)[C@H](CC(=O)O)NC(=O)[C@H](CCC(N)=O)NC(=O)[C@H](C)NC(=O)[C@H](CCCNC(=N)N)NC(=O)[C@H](CCCCNC(=O)COCCOCCNC(=O)COCCOCCNC(=O)CC[C@H](NC(=O)CCCCCCCCCCCCCCCCC(=O)O)C(=O)O)NC(=O)[C@H](CO)NC(=O)[C@H](CC(=O)O)NC(=O)[C@H](CC(C)C)NC(=O)[C@](C)(Cc1ccccc1)NC(=O)[C@H](CCCCN)NC(=O)[C@H](CO)NC(=O)[C@@H](NC(=O)[C@H](CC(=O)O)NC(=O)[C@H](CO)NC(=O)[C@@H](NC(=O)[C@H](Cc1ccccc1)NC(=O)[C@@H](NC(=O)CNC(=O)[C@H](CCC(N)=O)NC(=O)C(C)(C)NC(=O)[C@@H](N)Cc1c[nH]cn1)[C@@H](C)O)[C@@H](C)O)C(C)C)C(C)C)C(=O)O` [Peptide 145] (H-H[Aib]QGTFTSDVSK[αMeF]LDSK([AEEA-AEEA-γGlu-C18 diacid])RAQDFVRWLASRGI-OH) were 8.34, 10.65 and 401.2.
In the case of `CC(C)C[C@H](NC(=O)[C@H](Cc1c[nH]c2ccccc12)NC(=O)[C@H](CCCNC(=N)N)NC(=O)[C@@H](NC(=O)[C@H](Cc1ccccc1)NC(=O)[C@H](CC(=O)O)NC(=O)[C@H](CCC(N)=O)NC(=O)[C@H](C)NC(=O)[C@H](CCCNC(=N)N)NC(=O)[C@H](CCCCNC(=O)COCCOCCNC(=O)COCCOCCNC(=O)CC[C@H](NC(=O)CCCCCCCCCCCCCCCCC(=O)O)C(=O)O)NC(=O)[C@H](CO)NC(=O)[C@H](CC(=O)O)NC(=O)[C@H](CC(C)C)NC(=O)[C@](C)(Cc1ccccc1)NC(=O)[C@H](CCCCN)NC(=O)[C@H](CO)NC(=O)[C@@H](NC(=O)[C@H](CC(=O)O)NC(=O)[C@H](CO)NC(=O)[C@@H](NC(=O)[C@H](Cc1ccccc1)NC(=O)[C@@H](NC(=O)CNC(=O)[C@H](CCC(N)=O)NC(=O)C(C)(C)NC(=O)[C@@H](N)Cc1c[nH]cn1)[C@@H](C)O)[C@@H](C)O)C(C)C)C(C)C)C(=O)N[C@@H](C)C(=O)N[C@@H](CO)C(=O)N[C@@H](CCCNC(=N)N)C(=O)O` [Peptide 146] (H-H[Aib]QGTFTSDVSK[αMeF]LDSK([AEEA-AEEA-γGlu-C18 diacid])RAQDFVRWLASR-OH; N-terminus assumed), the pEC50 in experiment [1] was 8.79; in experiment [2], 10.61. In addition, in experiment [2], the “% Relative Potency Ratio” value was 131.3.
In the case of `CC(C)C[C@H](NC(=O)[C@H](Cc1c[nH]c2ccccc12)NC(=O)[C@H](CCCNC(=N)N)NC(=O)[C@@H](NC(=O)[C@H](Cc1ccccc1)NC(=O)[C@H](CC(=O)O)NC(=O)[C@H](CCC(N)=O)NC(=O)[C@H](C)NC(=O)[C@H](CCCNC(=N)N)NC(=O)[C@H](CCCCNC(=O)COCCOCCNC(=O)COCCOCCNC(=O)CC[C@H](NC(=O)CCCCCCCCCCCCCCCCC(=O)O)C(=O)O)NC(=O)[C@H](CO)NC(=O)[C@H](CC(=O)O)NC(=O)[C@H](CC(C)C)NC(=O)[C@](C)(Cc1ccccc1)NC(=O)[C@H](CCCCN)NC(=O)[C@H](CO)NC(=O)[C@@H](NC(=O)[C@H](CC(=O)O)NC(=O)[C@H](CO)NC(=O)[C@@H](NC(=O)[C@H](Cc1ccccc1)NC(=O)[C@@H](NC(=O)CNC(=O)[C@H](CCC(N)=O)NC(=O)C(C)(C)NC(=O)[C@@H](N)Cc1c[nH]cn1)[C@@H](C)O)[C@@H](C)O)C(C)C)C(C)C)C(=O)N[C@@H](CCC(=O)O)C(=O)N[C@@H](C)C(=O)NC(C)(C)C(=O)NCC(=O)O` [Peptide 147] (H-H[Aib]QGTFTSDVSK[αMeF]LDSK([AEEA-AEEA-γGlu-C18 diacid])RAQDFVRWLEA[Aib]G-OH; N-terminus assumed), the results for the pEC50 in experiment [1] and in experiment [2] were 10.36 and 10.81, respectively. Also, in experiment [2], the “% Relative Potency Ratio” value is 5.6.
